From article PMC4643019, “Imaging Sites of Inhibition of Proteolysis in Pathomimetic Human Breast Cancer Cultures by Light-Activated Ruthenium Compound” (PLoS ONE, 2015)
Entries after “also recorded” stand apart in the source; their conditions may differ. Where two headings read alike, the source gives them in different places.

How the values were obtained:
[1] = molecular target: T1, CTSB activity in MDA-MB-231 cell lysates (Homo sapiens, UniProt P07858); assay: Inhibition of cellular cathepsin B activity in MDA-MB-231 cell lysates (Z-Arg-Arg-AMC); format: biochemical; conditions: for IC50: MDA-MB-231 lysate
T1 construct: endogenous in cells; host or cells: MDA-MB-231 (ATCC) cell lysate
Protocol: (§1) TNBC cell lines were originally purchased from American Type Culture Collection (Rockville, MD, USA) and authenticated using the STR PowerPlex 16 system (Promega). Cells were cultured in basal medium supplemented with 10% fetal bovine serum (MDA-MB-231, DMEM; Hs578T, DMEM + 10 μg/ml bovine insulin). To prepare cell lysates, cells were grown on 100 mm dishes to ~80% confluency, washed twice with PBS (phosphate buffered saline), scraped and lysed in SME buffer (250 mM sucrose, 25 mM MES, 1 mM EDTA, pH 6.5, and 0.1% Triton X-100) and then sonicated on ice three times for 10 sec each. CTSB activity was measured as previously described. Briefly, 50 μl of cell lysate was incubated with 300 μl of activator buffer (5 mM EDTA, 10 mM DTT (pH 5.2) at 37°C during 15 min. The sample (1 μl) was added to 100 μl of the activator buffer containing cell lysate and the reaction mixtures were conducted during 45 min under dark (no irradiation) and light (irradiation at 250 W, 395–750 nm) conditions for 45 min with a tungsten halogen lamp and H2O filter on separate plates as described above. The experiments were carried out in triplicate (on 96-well flat bottom black plates) at pH 6.0.

[2] = molecular target: T2, CTSB activity in Hs578T cell lysates (Homo sapiens, UniProt P07858); assay: Inhibition of cellular cathepsin B activity in Hs578T cell lysates (Z-Arg-Arg-AMC); format: biochemical; conditions: for IC50: Hs578T lysate
T2 construct: endogenous in cells; host or cells: Hs578T (ATCC) cell lysate
Protocol: as §1

[3] = Stability in the dark, determined spectrophotometrically (ln A vs. t); format: physicochemical
Excerpt: This was expected because cis-[Ru(bpy)2Cl2] was used as a racemic mixture of Δ- and Λ stereoisomers. […] The electronic absorption spectrum of 2 is highly consistent with other dications of the general formula cis-[Ru(bpy)2(RCN)2]^2+, where RCN is MeCN,^130 5-cyanouracil,^124 and protease inhibitors structurally related to 1 [17–18]. Data for 2 in water containing 2% acetone show a maximum at 420 nm (ε = 10,360 M^-1cm^-1) assigned to a singlet metal-to-ligand charge transfer (^1MLCT) transition.

[4] = tested on: MDA-MB-231 3D MAME cultures; assay: Live-cell proteolysis assay (DQ-collagen IV) in 3D MAME cultures, MDA-MB-231; format: cell-based, human
Protocol: (§2) Proteolytic cleavage of DQ-collagen IV substrate (Invitrogen, Carlsbad, CA, USA) by live TNBC cells was imaged in real time and quantified as previously described. Briefly, glass coverslips were coated with 50 μl of 16.4 mg/ml Cultrex^TM containing 25 μg/ml DQ-collagen IV and incubated for 15 min at 37°C to solidify. TNBC cells (1.0 x 10^4) were seeded onto coated glass coverslips and incubated for 60 min. Medium containing 2% Cultrex^TM was added to the cells. The sample was added every 48 h. […] Where indicated, assays were performed in the presence of CA074 and CA074Me (5 μM each) (Peptides International, Louisville, KY, USA), compound 1 or compound 2. For experiments with the caged inhibitor, cells were exposed to dark (no irradiation) and light (irradiation at 250 W, 395–750 nm) conditions for 45 min with a tungsten halogen lamp and H2O filter on separate plates. After 4 days of culture, optical sections through the entire depth of the 3D structures were acquired on a confocal microscope and, reconstructed in 3D using Volocity software. At the time of imaging cells were stained with CellTracker Orange and nuclei with Hoechst 33342. Volocity software was used to determine cellular boundaries in each confocal slice and generate a “cytoplasmic mask” as well as to count nuclei. The intensity of DQ-collagen IV degradation fragments per cell was quantified in the entire 3D volume. Degradation fragments were segmented into those present inside or surrounding the cells by using image arithmetic as we have previously described in detail.

Hs578T 3D MAME cultures [5] = assay: Live-cell proteolysis assay (DQ-collagen IV) in 3D MAME cultures, Hs578T; format: cell-based, human
Protocol: as §2

[6] = Photoinduced ligand exchange quantum yield; format: physicochemical
Protocol: Electronic absorption spectra were measured with a Hewlett-Packard 8453 diode array spectrophotometer. The ligand exchange quantum yield experiments were performed with a 150 W Xe arc lamp (USHIO) in a Milliarc lamp housing unit with an LPS-220 power supply and an LPS-221 igniter (PTI). A bandpass filter (Thorlabs) and long-pass filter (CVI Melles Griot) were used to select the appropriate irradiation wavelengths.
The photolysis experiments were performed in H2O with 2% acetone and in an acetone solution containing 0.25 M tetrabutylammonium, and the chloride (TBACl) in a 1 × 1 cm quartz cuvette, and the irradiation wavelengths were selected with a 395 nm long-pass filter. The photon flux of the arc lamp with a 335 nm long-pass filter and a 400 nm bandpass filter was determined to be 4.30 ± 0.25 × 10^−8 mol photons/min by ferrioxalate actinometry as previously described in detail. The quantum yields (Φ) for ligand dissociation of 2 were determined in each of the solvent systems in a 1 × 1 cm quartz cuvette. The decrease in the MLCT absorption maximum of the reactant with ε = 10,360 M^–1cm^–1 at 412 nm as a function of time was monitored at early irradiation times to calculate the rate of moles of reactant converted to intermediate, I. The increase of the MLCT absorption maximum of the product at 490 nm (ε = 9,300 M^–1cm^–1) was monitored at irradiation times after the formation of the intermediate to determine the rate of moles of product P formed. These rates along with the photon flux were used to calculate the quantum yields for the first and second steps, ΦR→I and ΦI→P, respectively.

[7] = molecular target: T3, CTSB purified from human liver (Homo sapiens, UniProt P07858); assay: Cathepsin B activity assay with purified enzyme (Z-Arg-Arg-AMC); format: biochemical; conditions: for IC50: CTSB 10 nM, substrate 150 μM
T3 construct: CTSB purified from human liver was purchased from Athens Research & Technology; purchased Athens Research & Technology (Athens, GA, USA); host or cells: human liver (tissue-purified)
Protocol: CTSB purified from human liver was purchased from Athens Research & Technology (Athens, GA, USA). The enzyme activity was determined from kinetic measurements performed by fluorimetric detection of the hydrolysis product AMC at 37°C for 30 min at one-minute intervals using a Tecan SpectraFluor Plus plate-reader. The excitation and emission wavelengths were 360 and 485 nm, respectively. The fluorescent substrate Z-Arg-Arg-AMC (Bachem, Torrance, CA, USA) was used at a final concentration of 150 μM.
The enzyme was activated for 15 minutes with activator buffer (100 μl) containing 5 mM EDTA, 10 mM DTT (pH 5.2) at 37°C. The sample (1 μl) was added and the reaction mixtures were conducted during 45 min under dark (no irradiation) and light (irradiation at 250 W, 395–750 nm) conditions with a tungsten halogen lamp and H2O filter on separate plates. For the experiments under dark conditions, room lights were off and in addition the plate was covered with aluminum foil (light protection); the other plate was exposed to visible light for the same time period. The irradiation wavelength was selected by placing a 395 long-pass filter between the lamp and the sample, along with a 10 cm water cell to absorb infrared light. After photolysis, the reaction was initiated by addition of 200 μl of assay buffer (0.6 mM CaCl2, 0.6 mM MgCl2, 25 mM piperazin-N-N‘-bis[2-ethanosulfonic acid] (disodium salt)), pH 7.3 containing 150 μM Z-Arg-Arg-AMC substrate solution. Enzyme concentration was 10 nM. The experiments were carried out in triplicate in 96-well flat bottom black plates at pH 6.0. Enzyme activities are expressed as a percentage, with 100% equal to activity in the absence of inhibitor. IC50 values were determined by plotting percent activity vs. log (inhibitor concentration).

Hs578T 3D MAME cultures [8] = assay: Cell viability (Live/Dead) assay, Hs578T 3D MAME cultures; format: cell-based; conditions: in the dark or the light, 4 days
Protocol: (§3) Three-dimensional cultures of TNBC cells were established, grown and treated with compound 2 as described above. After 4 days, a cell viability assay was performed to assess the cytotoxic effects of compound 2. The assay has two components: Calcein AM that fluoresces green when cleaved by intracellular esterases thereby labeling live cells and Ethidium Homodimer-1 that fluoresces red when incorporated in the DNA of dead cells. A solution of 4 μM Ethidium Homodimer-1 and 2 μM Calcein AM was prepared in sterile PBS. Cultures were incubated for 30 minutes at 37°C, washed once with warm PBS and replenished with warm MEGM media for live cell imaging. The samples were then imaged at 10X magnification using a Zeiss 510 META confocal microscope. Tiled 16-panel images and z-stacks through the depth of structures were captured. The images were processed to show top views using Volocity software.

[9] = tested on: MDA-MB-231 3D MAME cultures; assay: Cell viability (Live/Dead) assay, MDA-MB-231 3D MAME cultures; format: cell-based; conditions: in the dark or the light, 4 days
Protocol: as §3

cathepsin L = tested on: cathepsin L; design: method as in PMID 12437121; conditions: cited from earlier work
[10] = not told; cited from earlier work
Solubility (statement) = format: physicochemical
[11] = tested on: recombinant human CTSB expressed in baculovirus; design: method as in PMID 11741472; conditions: cited from earlier work
[12] = dark (no irradiation) 45 min, read-out: IC50 (dark)
[13] = light λirr = 395–750 nm, 45 min, read-out: IC50 (light)
[14] = acetone solution containing 0.25 M TBACl
[15] = water (2% acetone), λirr = 400 nm
[16] = uncaged compound 1, read-out: IC50

Cc1cccc(CC(NC(=O)c2ccc(Cl)c(Cl)c2)C(=O)NCC#N)c1.Cc1cccc(CC(NC(=O)c2ccc(Cl)c(Cl)c2)C(=O)NCC#N)c1.F[B-](F)(F)F.F[B-](F)(F)F.[Ru+2].c1ccc(-c2ccccn2)nc1.c1ccc(-c2ccccn2)nc1 (mixture of isomers) [compound 2, Δ- and Λ-cis [Ru(bpy)2(1)2](BF4)2]
dark/light ratio ([1]; MDA-MB-231 cell lysates): 79.6 | IC50 [1, 12]: 126000 nM | IC50 [1, 13]: 1580 nM | dark/light ratio ([2]; Hs578T cell lysates): 12.6 | IC50 [2, 12]: 11200 nM | IC50 [2, 13]: 890 nM | kobs, rate constant for decomposition in the dark ([3]; DMSO, 293 ± 2 K): 1.6 ± 0.1 × 10^−7 s^-1 | kobs, rate constant for decomposition in the dark ([3]; phosphate buffered saline, pH 6.5, 293 ± 2 K): 1.2 ± 0.1 × 10^−6 s^-1 | degradation of DQ-collagen IV ([4]; MDA-MB-231, 1 μM, exposed to visible light, 4 days): significantly reduced | inhibition of proteolysis in the dark ([4]; MDA-MB-231, higher concentrations than 1 μM, dark (data not shown)): significant inhibition of proteolysis | degradation of DQ-collagen IV (Hs578T 3D MAME cultures [5]; 1 μM, exposed to visible light, 4 days): significantly reduced | inhibition of proteolysis in the dark (Hs578T 3D MAME cultures [5]; higher concentrations than 1 μM, dark (data not shown)): significant inhibition of proteolysis | quantum yield of ligand exchange, first step ΦR→I [6, 14]: 0.056(9) | quantum yield of ligand exchange, second step ΦI→P [6, 14]: 0.032 | quantum yield of ligand exchange, first step ΦR→I [6, 15]: 0.026(4) | quantum yield of ligand exchange, second step ΦI→P [6, 15]: 0.0045(9) | IC50 [7, 12]: 3400 nM | IC50 ([7]; light λirr = 395–750 nm, 45 min, 250 W, read-out: IC50 (light)): 280 nM | dark/light IC50 ratio ([7]; purified CTSB): 12 | toxicity by cell viability assay (Hs578T 3D MAME cultures [8]): did not observe any toxicity | toxicity by cell viability assay [9]: did not observe any toxicity

CCCNC(=O)[C@H]1O[C@@H]1C(=O)N[C@H](C(=O)N1CCC[C@H]1C(=O)OC)[C@@H](C)CC [CA074Me]
inhibition of cathepsin L (cathepsin L): inhibits | cell permeability [10]: cell permeable

CCCNC(=O)[C@H]1O[C@@H]1C(=O)N[C@H](C(=O)N1CCC[C@H]1C(=O)O)[C@@H](C)CC [CA074]
inhibition of cathepsin L (cathepsin L): not | cell permeability [10]: non-cell permeable

Cc1cccc(C[C@H](NC(=O)c2ccc(Cl)c(Cl)c2)C(=O)NCC#N)c1 [compound 1, (S)-3,4-dichloro-N-(1-((cyanomethyl)amino)-1-oxo-3-(m-tolyl)propan-2-yl)benzamide]
IC50 [1, 16]: 1540 nM | IC50 [2, 16]: 910 nM | total degradation of DQ-collagen IV ([4]; MDA-MB-231, 4 days of culture, concentration of 1 not given): significantly less degradation of DQ-collagen IV; also recorded: significant reductions | pericellular proteolysis (DQ-collagen IV) ([4]; MDA-MB-231, 4 days, concentration of 1 not given): significant reductions | solubility in H2O (Solubility (statement)): low solubility | inhibition of recombinant human CTSB [11]: potent, selective and reversible inhibitor | total degradation of DQ-collagen IV (Hs578T 3D MAME cultures [5]; 4 days of culture, concentration of 1 not given): significantly less degradation of DQ-collagen IV; also recorded: significant reductions | pericellular proteolysis (DQ-collagen IV) (Hs578T 3D MAME cultures [5]; 4 days, concentration of 1 not given): significant reductions | IC50 [7, 16]: 330 nM

CC#N.CC#N.F[P-](F)(F)(F)(F)F.F[P-](F)(F)(F)(F)F.[Ru+2].c1ccc(-c2ccccn2)nc1.c1ccc(-c2ccccn2)nc1 [compound 3, cis-[Ru(bpy)2(MeCN)2](PF6)2, reference compound]
inhibition of proteolysis (DQ-collagen IV) ([4]; MDA-MB-231, 1 μM, light vs. dark conditions, 4 days): did not inhibit proteolysis | inhibition of proteolysis (DQ-collagen IV) (Hs578T 3D MAME cultures [5]; 1 μM, light vs. dark conditions, 4 days): did not inhibit proteolysis
